Results on two compounds are retold here after patent US20220296611A1, “PHARMACEUTICAL COMPOSITION FOR PREVENTING OR TREATING CANCER” (SEOUL NATIONAL UNIVERSITY R&DB FOUNDATION, priority 2019, published 2022).

The test system of one experiment is Hepa cells (Hepa1c1c7). Briefly: Comparison of cell viability of Hepa cells (MTT assay, cell number counting). The following applies: 48 h. The experiment is classed as cell-based, Murin. Here is the method: After culturing cells, the cells were resuspended in a fresh medium. After obtaining 200 μL of the cell suspension, […] of […] with a dilution factor of 2× was added thereto.
A hemocytometer equipped with a coverslip was prepared, and each chamber was filled with the suspension, followed by counting the number of cells. A specific counting method is as follows.
1) Live cells/ml=No. of cells counted/No. of squares counted×Dilution factor×1000
2) Dead cells/ml=No. of dead cells/No. of squares counted×Dilution factor×100
3) Percentage Viability=No. of live cells/Total No. of cells×100
As illustrated in the flow chart shown in FIG. 1, the degree of cytotoxicity was evaluated through MTT assay.
(1) In the present invention, all liver cancer cell lines were Murin hepatoma cell lines (Hepa1c1c7), hereinafter, referred to as Hepa cells. In this experiment, the following definitions were applied: no treatment group (NT); a fenbendazole treatment group (Fen); a TUDCA 200 μmol treatment group (TUDCA 200); a TUDCA 500 μmol treatment group (TUDCA 500); a TUDCA 1000 μmol treatment group (TUDCA 1000); a mixture of 1.2 μmol fenbendazole and 200 μmol TUDCA (1.2+200); a mixture of 1.2 μmol fenbendazole and 500 μmol TUDCA (1.2+500); a mixture of 1.2 μmol fenbendazole and 1000 μmol TUDCA (1.2+1000), respectively. […]
A general note: Formazan colour is commonly taken as a measure of viable cells.

The next experiment has as its system HeLa cells. Briefly: Comparison of cell viability of HeLa cells (MTT assay). The following applies: 24 h and 48 h after treatment; TUDCA 1000 μM, fenbendazole 1.2 μM, doxorubicin 10 μM. In kind it is cell-based. Here is the method: 3. MTT Assay As illustrated in the flow chart shown in FIG. 1, the degree of cytotoxicity was evaluated through MTT assay. (1) HeLa cells are cervical cancer cell lines. In this experiment, experimental groups were divided as follows: specifically, a group in which HeLa cells are not treated, that is, no treatment group (NT); a doxorubicin-treated group (Doxo); a fenbendazole-treated group (Fen); a TUDCA treated group (TUDCA); and a group treated with a mixture of fenbendazole and TUDCA (Fen+TUDCA), and cell viability was compared over time (24 h, 48 h) after treatment. […] Further, the mixture of fenbendazole and TUDCA was prepared by mixing both compounds with the above concentrations at the same dose. Further, all treatment groups were treated with the corresponding compounds at the same dose.

With `C[C@H](CCC(=O)NCCS(=O)(=O)O)[C@H]1CC[C@H]2[C@@H]3[C@@H](O)C[C@@H]4C[C@H](O)CC[C@]4(C)[C@H]3CC[C@]12C` [TUDCA, tauroursodeoxycholic acid], in the experiment on Hepa cells (Hepa1c1c7), the “apoptosis effect depending on the concentration of TUDCA” value is recorded as “the higher the concentration of TUDCA, the better the apoptosis effect at 48 h”. Further, the “apoptotic effects (cell viability of HeLa cells) compared to doxorubicin” value in the experiment with HeLa cells is “more excellent apoptotic effects at 24 h and 48 h after treatment than doxorubicin”.

Take `COC(=O)Nc1nc2ccc(Sc3ccccc3)cc2[nH]1` [fenbendazole]: the “apoptotic effects (cell viability of HeLa cells) compared to doxorubicin” value with HeLa cells is “more excellent apoptotic effects at 24 h and 48 h after treatment than doxorubicin”.
